Measurements published in ChEMBL document CHEMBL1122789, “Synthesis and biological activity of structural analogues of the anticancer benzophenanthridine alkaloid nitidine chloride” (1984).

Tests used:
[1] = system: Lewis lung carcinoma cell line; assay: Evaluated for anticancer activity in survival tumor system Lewis lung (LL) carcinoma at a dose of 50 mg/kg;Number of Tested survived/number of control survived (10/10); type: functional, Mus musculus
[2] = system: P388; assay: Evaluated for anticancer activity in survival tumor system P388 lymphocytic leukemia at dose 12.5 mg/kg; type: functional, Mus musculus
[3] = system: P388; assay: Evaluated for anticancer activity in survival tumor system P388 lymphocytic leukemia at a dose of 100 mg/kg; Number of Tested survived/number of control survived (5/6); type: functional, Mus musculus
[4] = system: B16; assay: Evaluated for anticancer activity in survival tumor system B16 melanocarcinoma at a dose of 12.5 mg/kg; Number of Tested survived/number of control survived (9/10); type: functional, Mus musculus
[5] = system: L1210; assay: Evaluated for anticancer activity in survival tumor system L1210 lymphoid leukemia at a dose of 6.25 mg/kg, value was reported as weight difference; type: functional, Mus musculus
[6] = system: B16; assay: Evaluated for anticancer activity in survival tumor system B16 melanocarcinoma at a dose of 12.5 mg/kg, value was reported as weight difference; type: functional, Mus musculus
[7] = system: L1210; assay: Evaluated for anticancer activity in survival tumor system L1210 lymphoid leukemia at a dose of 50 mg/kg; Number of Tested survived/number of control survived (6/6); type: functional, Mus musculus
[8] = Evaluated for anticancer activity in tumor inhibition system colon 38 tumors at a dose of 100 mg/kg; Number of Tested survived/number of control survived (10/10); type: functional, Mus musculus
[9] = system: B16; assay: Evaluated for anticancer activity in survival tumor system B16 melanocarcinoma at a dose of 100 mg/kg; Number of Tested survived/number of control survived (7/10); type: functional, Mus musculus
[10] = system: P388; assay: Evaluated for anticancer activity in survival tumor system P388 lymphocytic leukemia at a dose of 12.5 mg/kg, value was reported as weight difference; type: functional, Mus musculus
[11] = system: P388; assay: Evaluated for anticancer activity in survival tumor system P388 lymphocytic leukemia at a dose of 50 mg/kg, value was reported as weight difference; type: functional, Mus musculus
[12] = system: Lewis lung carcinoma cell line; assay: Evaluated for anticancer activity in survival tumor system Lewis lung (LL) carcinoma at dose 50 mg/kg; type: functional, Mus musculus
[13] = system: P388; assay: Evaluated for anticancer activity in survival tumor system P388 lymphocytic leukemia at a dose of 25 mg/kg;Number of Tested survived/number of control survived (5/6); type: functional, Mus musculus
[14] = system: L1210; assay: Evaluated for anticancer activity in survival tumor system L1210 lymphoid leukemia at a dose of 100 mg/kg; Number of Tested survived/number of control survived (6/6); type: functional, Mus musculus
[15] = system: P388; assay: Evaluated for anticancer activity in survival tumor system P388 lymphocytic leukemia at a dose of 25 mg/kg, value was reported as weight difference; type: functional, Mus musculus
[16] = Evaluated for anticancer activity in tumor inhibition system colon 38 tumor at dose 100 mg/kg; type: functional, Mus musculus
[17] = system: B16; assay: Evaluated for anticancer activity in survival tumor system B16 melanocarcinoma at a dose of 25 mg/kg; Number of Tested survived/number of control survived (10/10); type: functional, Mus musculus
[18] = Evaluated for anticancer activity in tumor inhibition system colon 38 tumors at a dose of 50 mg/kg; Number of Tested survived/number of control survived (10/10); type: functional, Mus musculus
[19] = system: MX1; assay: Evaluated for anticancer activity in tumor inhibition system MX-1 breast xenograph at dose 150 mg/kg; type: functional, Homo sapiens
[20] = system: Lewis lung carcinoma cell line; assay: Evaluated for anticancer activity in survival tumor system Lewis lung (LL) carcinoma at a dose of 12.5 mg/kg; Number of Tested survived/number of control survived (10/10); type: functional, Mus musculus
[21] = system: MX1; assay: Evaluated for anticancer activity in tumor inhibition system MX-1 breast xenograph at a dose of 75 mg/kg; Number of Tested survived/number of control survived (4/6); type: functional, Homo sapiens
[22] = system: MX1; assay: Evaluated for anticancer activity in tumor inhibition system MX-1 breast xenograph at a dose of 75 mg/kg, value was reported as weight difference; type: functional, Homo sapiens
[23] = system: MX1; assay: Evaluated for anticancer activity in tumor inhibition system MX-1 breast xenograph at a dose of 300 mg/kg; Number of Tested survived/number of control survived (1/6); type: functional, Homo sapiens
[24] = system: KB; assay: Evaluated in vitro for cytotoxicity against KB cell culture system; type: functional; details: Homo sapiens, read-out: ED50 (the source's name)
[25] = Evaluated for anticancer activity in tumor inhibition system colon 38 tumors at a dose of 800 mg/kg; Number of Tested survived/number of control survived (0/10); type: functional, Mus musculus
[26] = system: L1210; assay: Evaluated for anticancer activity in survival tumor system L1210 lymphoid leukemia at a dose of 25 mg/kg; Number of Tested survived/number of control survived (6/6); type: functional, Mus musculus
[27] = Evaluated for anticancer activity in tumor inhibition system CD8F1 mammary tumors at a dose of 500 mg/kg; Number of Tested survived/number of control survived (0/10); type: functional, Mus musculus
[28] = system: P388; assay: Evaluated for anticancer activity in survival tumor system P388 lymphocytic leukemia at dose 100 mg/kg; type: functional, Mus musculus
[29] = Evaluated for anticancer activity in tumor inhibition system CD8F1 mammary tumors at a dose of mg/kg;Number of Tested survived/number of control survived (10/10); type: functional, Mus musculus
[30] = system: Lewis lung carcinoma cell line; assay: Evaluated for anticancer activity in survival tumor system Lewis lung (LL) carcinoma at dose 100 mg/kg; type: functional, Mus musculus
[31] = system: Lewis lung carcinoma cell line; assay: Evaluated for anticancer activity in survival tumor system Lewis lung (LL) carcinoma at a dose of 25 mg/kg; number of Tested survived/number of control survived; type: functional, Mus musculus
[32] = system: Lewis lung carcinoma cell line; assay: Evaluated for anticancer activity in survival tumor system tumor system Lewis lung (LL) carcinoma at a dose of 200 mg/kg; Number of Tested survived/number of control survived (2/10); type: functional, Mus musculus
[33] = system: L1210; assay: Evaluated for anticancer activity in survival tumor system L1210 lymphoid leukemia at dose 100 mg/kg; type: functional, Mus musculus
[34] = system: L1210; assay: Evaluated for anticancer activity in survival tumor system L1210 lymphoid leukemia at dose 3.12 mg/kg; type: functional, Mus musculus
[35] = system: B16; assay: Evaluated for anticancer activity in survival tumor system B16 melanocarcinoma at a dose of 200 mg/kg, value was reported as weight difference; type: functional, Mus musculus
[36] = system: Lewis lung carcinoma cell line; assay: Evaluated for anticancer activity in survival tumor system Lewis lung (LL) carcinoma at a dose of 100 mg/kg, value was reported as weight difference; type: functional, Mus musculus
[37] = system: L1210; assay: Evaluated for anticancer activity in survival tumor system L1210 lymphoid leukemia at dose 25 mg/kg; details: Mus musculus
[38] = system: Lewis lung carcinoma cell line; assay: Evaluated for anticancer activity in survival tumor system Lewis lung (LL) carcinoma at dose 12.5 mg/kg; type: functional, Mus musculus
[39] = system: Lewis lung carcinoma cell line; assay: Evaluated for anticancer activity in survival tumor system Lewis lung (LL) carcinoma at dose 25 mg/kg; type: functional, Mus musculus
[40] = Evaluated for anticancer activity in tumor inhibition system CD8F mammary tumor at a dose of 62 mg/kg, value was reported as weight difference; type: functional, Mus musculus
[41] = system: B16; assay: Evaluated for anticancer activity in survival tumor system B16 melanocarcinoma at a dose of 50 mg/kg; number of Tested survived/number of control survived; type: functional, Mus musculus
[42] = Evaluated for anticancer activity in tumor inhibition system colon 38 at a dose of 100 mg/kg, value was reported as weight difference; type: functional, Mus musculus
[43] = system: L1210; assay: Evaluated for anticancer activity in survival tumor system L1210 lymphoid leukemia at a dose of 3.125 mg/kg, value was reported as weight difference; type: functional, Mus musculus

## COc1cc2c[n+](C)c3c(c2cc1OC)Cc1cc2c(cc1-3)OCO2.[Cl-]
[1]
  Survival: 10
[2]
  T/C: 134%
[3]
  Survival: 5
[4]
  Survival: 9
[5]
  Weight change: -3.2
[6]
  Weight change: -1
[7]
  Survival: 6
[8]
  Survival: 10
[9]
  Survival: 7
[10]
  Weight change: -1.4
[11]
  Weight change: -5
[12]
  T/C: 119%
[13]
  Survival: 5
[14]
  Survival: 6
[15]
  Weight change: -3.6
[16]
  T/C: 107%
[17]
  Survival: 10
[18]
  Survival: 10
[19]
  T/C: 35%
[20]
  Survival: 10
[21]
  Survival: 4
[22]
  Weight change: -4.5
[23]
  Survival: 1
[24]
  EC50: 0.038 µg/mL
[25]
  Survival: 0
[26]
  Survival: 6
[27]
  Survival: 0
[28]
  T/C: 168%
[29]
  Survival: 10
[30]
  T/C: 51%
[31]
  Survival: 10
[32]
  Survival: 2
[33]
  T/C: 95%
[34]
  T/C: 129%
[35]
  Weight change: -4.2
[36]
  Weight change: -3.8
[37]
  T/C: 165%
[38]
  T/C: 97%
[39]
  T/C: 114%
[40]
  Weight change: -1
[41]
  Survival: 10
[42]
  Weight change: -1.9
[43]
  Weight change: -1.9
